The record followed here is US20230390319A1, “INTERFERON GENE STIMULATOR COMPOSITION COMPRISING INDOLIZINE DERIVATIVE AS ACTIVE INGREDIENT” (AJOU UNIVERSITY INDUSTRY-ACADEMIC COOPERATION FOUNDATION, priority 2020, published 2023).

Molecules are shown by their SMILES.

One data set concerns ISRE reporter signal. Description: ISRE luciferase reporter assay, THP-1 cells co-treated with compound and cGAMP. Particulars: THP-1 cells, 20 μM of each compound, co-treated with cGAMP (1 μg/ml), 24 hours. The format is cell-based, Human. As for the experimental part:
(§1) Human monocytic THP-1 wild-type (WT) and STING knockout (KO) cell lines were obtained from InvivoGen. Cells were cultured in 1×RPMI 1640 medium containing 10% fetal bovine serum (FBS, Hyclone), 2.05 mM L-glutamine (Hyclone) and 1% penicillin (Corning) in a humidified incubator at 37° C. under 5% CO2.
To confirm immune responses, THP-1 cells were placed in 384-well plates (Grenier), and treated with each compound and cGAMP (1 μg/ml), and after 24 hours, ISRE activity was analyzed. QUANTI-Luc assay (InvivoGen) was performed using the cell culture supernatant to confirm the luciferase reporter gene signal. Fluorescent signals were measured using a TECAN micro plate reader SPARK, and the results were normalized to DMSO control.
(§2) THP-1 cells were co-treated with each of 86 indolizine derivatives and a very small amount of cGAMP (1 μg/ml), the immune response of the THP-1 cells was examined by ISRE reporter assay, and the cytotoxicity of co-treatment was also evaluated (Table 1). All results were compared by normalization to the reporter assay results obtained by treatment with cGAMP alone. […] Thus, Compound 42 was used in subsequent experiments.

The next data set concerns THP-1 cells. Description: Cell viability assay (CellTiter Clo) in THP-1 cells. The data set is classed as cell-based, Human. Conditions: THP-1 cells, 20 μM of each compound, co-treated with cGAMP (1 μg/ml). As for the experimental part:
as §1
Cells were analyzed using CellTiter Clo (CTG, Promega). […] was measured using a TECAN micro plate reader SPARK. Results were normalized to DMSO control.
as §2

For the compound `O=C(c1ccc(C(F)(F)F)cc1)c1cc(-c2ccc(C(F)(F)F)cc2)c2cc(C(F)(F)F)ccn12` [Compound 1], the “Normalized RU (relative unit of ISRE reporter signal)” value in the data set with ISRE reporter signal was found to be 1.46. The Normalized cell viability in the data set with THP-1 cells came out at 1.10.
In the same order, the values of `CC(=O)c1ccc(-c2cc(C(=O)c3ccc(C(F)(F)F)cc3)n3ccc(C(F)(F)F)cc23)cc1` [Compound 2] are 1.42 and 1.03.
`O=C(c1ccc(C(F)(F)F)cc1)c1cc(-c2ccccc2)c2cc(C(F)(F)F)ccn12` [Compound 3]: the “Normalized RU (relative unit of ISRE reporter signal)” value in the data set with ISRE reporter signal is recorded as 1.40. For the same compound, the Normalized cell viability in the data set on THP-1 cells stood at 1.04.
Turning to `COc1ccc(-c2cc(C(=O)c3ccc(C(F)(F)F)cc3)n3ccc(C(F)(F)F)cc23)cc1` [Compound 4], the “Normalized RU (relative unit of ISRE reporter signal)” value in the data set on ISRE reporter signal was 1.33. Further, the Normalized cell viability in the data set with THP-1 cells came out at 1.05.
Regarding `CN(C)c1ccc(-c2cc(C(=O)c3ccc(C(F)(F)F)cc3)n3ccc(C(F)(F)F)cc23)cc1` [Compound 5], the “Normalized RU (relative unit of ISRE reporter signal)” value in the data set with ISRE reporter signal is on record as 1.58. The Normalized cell viability in the data set with THP-1 cells is recorded as 1.05.
Take `O=C(c1ccccc1)c1cc(-c2ccc(C(F)(F)F)cc2)c2cc(C(F)(F)F)ccn12` [Compound 6]: the “Normalized RU (relative unit of ISRE reporter signal)” value in the data set on ISRE reporter signal was found to be 1.38. Besides, in the data set on THP-1 cells, the Normalized cell viability worked out at 1.19.
Turning to `CC(=O)c1ccc(-c2cc(C(=O)c3ccccc3)n3ccc(C(F)(F)F)cc23)cc1` [Compound 7], the “Normalized RU (relative unit of ISRE reporter signal)” value with ISRE reporter signal came to 1.54. In addition, in the data set with THP-1 cells, the Normalized cell viability is given as 1.20.
In the case of `O=C(c1ccccc1)c1cc(-c2ccccc2)c2cc(C(F)(F)F)ccn12` [Compound 8], in the data set with ISRE reporter signal, the “Normalized RU (relative unit of ISRE reporter signal)” value is given as 1.18. Further, the Normalized cell viability with THP-1 cells is 1.06.
For the compound `COc1ccc(-c2cc(C(=O)c3ccccc3)n3ccc(C(F)(F)F)cc23)cc1` [Compound 9], the “Normalized RU (relative unit of ISRE reporter signal)” value in the data set on ISRE reporter signal is 1.21. In the data set on THP-1 cells, the Normalized cell viability was 1.03.
In the same order, the values of `CN(C)c1ccc(-c2cc(C(=O)c3ccccc3)n3ccc(C(F)(F)F)cc23)cc1` [Compound 10] are 1.67 and 1.21.
In the same order, the values of `COc1ccc(C(=O)c2cc(-c3ccc(C(F)(F)F)cc3)c3cc(C(F)(F)F)ccn23)cc1` [Compound 11] are 2.02 and 1.16.
Turning to `COc1ccc(C(=O)c2cc(-c3ccc(C(C)=O)cc3)c3cc(C(F)(F)F)ccn23)cc1` [Compound 12], the “Normalized RU (relative unit of ISRE reporter signal)” value in the data set on ISRE reporter signal is 1.31. For the same compound, in the data set on THP-1 cells, the Normalized cell viability was found to be 1.25.
Regarding `COc1ccc(C(=O)c2cc(-c3ccccc3)c3cc(C(F)(F)F)ccn23)cc1` [Compound 13], in the data set on ISRE reporter signal, the “Normalized RU (relative unit of ISRE reporter signal)” value is on record as 1.62. In addition, in the data set on THP-1 cells, the Normalized cell viability is 1.14.
Take `COc1ccc(C(=O)c2cc(-c3ccc(OC)cc3)c3cc(C(F)(F)F)ccn23)cc1` [Compound 14]: in the data set with ISRE reporter signal, the “Normalized RU (relative unit of ISRE reporter signal)” value worked out at 1.48. The Normalized cell viability in the data set on THP-1 cells came out at 1.30.
Take `COc1ccc(C(=O)c2cc(-c3ccc(N(C)C)cc3)c3cc(C(F)(F)F)ccn23)cc1` [Compound 15]: the “Normalized RU (relative unit of ISRE reporter signal)” value in the data set with ISRE reporter signal came out at 1.18. For the same compound, the Normalized cell viability with THP-1 cells is listed as 1.17.
On to `CCN(CC)c1ccc(C(=O)c2cc(-c3ccc(C(F)(F)F)cc3)c3cc(C(F)(F)F)ccn23)cc1` [Compound 16], for which, in the data set on ISRE reporter signal, the “Normalized RU (relative unit of ISRE reporter signal)” value is 1.66. Also, the Normalized cell viability in the data set with THP-1 cells is 1.22.
Turning to `CCN(CC)c1ccc(C(=O)c2cc(-c3ccc(C(C)=O)cc3)c3cc(C(F)(F)F)ccn23)cc1` [Compound 17], in the data set on ISRE reporter signal, the “Normalized RU (relative unit of ISRE reporter signal)” value worked out at 1.45. Moreover, the Normalized cell viability with THP-1 cells is 1.29.
Regarding `CCN(CC)c1ccc(C(=O)c2cc(-c3ccccc3)c3cc(C(F)(F)F)ccn23)cc1` [Compound 18], the “Normalized RU (relative unit of ISRE reporter signal)” value with ISRE reporter signal was 1.85. For the same compound, the Normalized cell viability in the data set on THP-1 cells stood at 1.17.
In the same order, the values of `CCN(CC)c1ccc(C(=O)c2cc(-c3ccc(OC)cc3)c3cc(C(F)(F)F)ccn23)cc1` [Compound 19] are 1.58 and 1.29.
Regarding `CCN(CC)c1ccc(C(=O)c2cc(-c3ccc(N(C)C)cc3)c3cc(C(F)(F)F)ccn23)cc1` [Compound 20], the “Normalized RU (relative unit of ISRE reporter signal)” value in the data set on ISRE reporter signal came out at 1.46. In addition, the Normalized cell viability in the data set on THP-1 cells worked out at 1.05.
Regarding `CC(=O)c1ccn2c(C(=O)c3ccc(C(F)(F)F)cc3)cc(-c3ccc(C(F)(F)F)cc3)c2c1` [Compound 21], the “Normalized RU (relative unit of ISRE reporter signal)” value in the data set on ISRE reporter signal was 1.86. Moreover, in the data set with THP-1 cells, the Normalized cell viability is reported as 1.19.
With `CC(=O)c1ccc(-c2cc(C(=O)c3ccc(C(F)(F)F)cc3)n3ccc(C(C)=O)cc23)cc1` [Compound 22], in the data set with ISRE reporter signal, the “Normalized RU (relative unit of ISRE reporter signal)” value was 1.31. The Normalized cell viability with THP-1 cells is on record as 1.09.
The like results for `CC(=O)c1ccn2c(C(=O)c3ccc(C(F)(F)F)cc3)cc(-c3ccccc3)c2c1` [Compound 23] were, in that order, 1.23 and 1.11.
In the case of `COc1ccc(-c2cc(C(=O)c3ccc(C(F)(F)F)cc3)n3ccc(C(C)=O)cc23)cc1` [Compound 24], the “Normalized RU (relative unit of ISRE reporter signal)” value in the data set on ISRE reporter signal was determined as 1.33. The Normalized cell viability in the data set on THP-1 cells is given as 1.21.
As for `CC(=O)c1ccn2c(C(=O)c3ccc(C(F)(F)F)cc3)cc(-c3ccc(N(C)C)cc3)c2c1` [Compound 25], the “Normalized RU (relative unit of ISRE reporter signal)” value with ISRE reporter signal is given as 1.75. In the data set on THP-1 cells, the Normalized cell viability amounted to 1.12.
With `CC(=O)c1ccn2c(C(=O)c3ccccc3)cc(-c3ccc(C(F)(F)F)cc3)c2c1` [Compound 26], the “Normalized RU (relative unit of ISRE reporter signal)” value with ISRE reporter signal is listed as 1.60. In addition, the Normalized cell viability in the data set with THP-1 cells came out at 1.21.
For `CC(=O)c1ccc(-c2cc(C(=O)c3ccccc3)n3ccc(C(C)=O)cc23)cc1` [Compound 27], the “Normalized RU (relative unit of ISRE reporter signal)” value in the data set on ISRE reporter signal was found to be 1.18. For the same compound, in the data set with THP-1 cells, the Normalized cell viability turned out to be 1.17.
With `CC(=O)c1ccn2c(C(=O)c3ccccc3)cc(-c3ccccc3)c2c1` [Compound 28], the “Normalized RU (relative unit of ISRE reporter signal)” value in the data set on ISRE reporter signal is given as 1.69. For the same compound, the Normalized cell viability in the data set on THP-1 cells amounted to 1.13.
The like results for `COc1ccc(-c2cc(C(=O)c3ccccc3)n3ccc(C(C)=O)cc23)cc1` [Compound 29] were, in that order, 1.00 and 1.20.
With `CC(=O)c1ccn2c(C(=O)c3ccccc3)cc(-c3ccc(N(C)C)cc3)c2c1` [Compound 30], the “Normalized RU (relative unit of ISRE reporter signal)” value with ISRE reporter signal was 1.33. Moreover, in the data set on THP-1 cells, the Normalized cell viability came to 1.26.
Consider `COc1ccc(C(=O)c2cc(-c3ccc(C(F)(F)F)cc3)c3cc(C(C)=O)ccn23)cc1` [Compound 31], for which the “Normalized RU (relative unit of ISRE reporter signal)” value with ISRE reporter signal is listed as 3.42. For the same compound, in the data set with THP-1 cells, the Normalized cell viability is recorded as 1.33.
With `COc1ccc(C(=O)c2cc(-c3ccc(C(C)=O)cc3)c3cc(C(C)=O)ccn23)cc1` [Compound 32], in the data set with ISRE reporter signal, the “Normalized RU (relative unit of ISRE reporter signal)” value is 2.91. Moreover, the Normalized cell viability in the data set with THP-1 cells turned out to be 1.11.
Consider `COc1ccc(C(=O)c2cc(-c3ccccc3)c3cc(C(C)=O)ccn23)cc1` [Compound 33], for which the “Normalized RU (relative unit of ISRE reporter signal)” value in the data set with ISRE reporter signal was 2.18. Further, the Normalized cell viability in the data set on THP-1 cells was found to be 1.22.
In the same order, the values of `COc1ccc(C(=O)c2cc(-c3ccc(OC)cc3)c3cc(C(C)=O)ccn23)cc1` [Compound 34] are 1.52 and 1.26.
Take `COc1ccc(C(=O)c2cc(-c3ccc(N(C)C)cc3)c3cc(C(C)=O)ccn23)cc1` [Compound 35]: in the data set on ISRE reporter signal, the “Normalized RU (relative unit of ISRE reporter signal)” value was 2.22. Also, the Normalized cell viability with THP-1 cells is 1.26.
As to `CCN(CC)c1ccc(C(=O)c2cc(-c3ccc(C(F)(F)F)cc3)c3cc(C(C)=O)ccn23)cc1` [Compound 36], the “Normalized RU (relative unit of ISRE reporter signal)” value with ISRE reporter signal is given as 3.37. Further, the Normalized cell viability with THP-1 cells came out at 1.27.
As for `CCN(CC)c1ccc(C(=O)c2cc(-c3ccc(C(C)=O)cc3)c3cc(C(C)=O)ccn23)cc1` [Compound 37], the “Normalized RU (relative unit of ISRE reporter signal)” value with ISRE reporter signal is given as 1.62. Also, the Normalized cell viability with THP-1 cells was determined as 1.25.
In the case of `CCN(CC)c1ccc(C(=O)c2cc(-c3ccccc3)c3cc(C(C)=O)ccn23)cc1` [Compound 38], the “Normalized RU (relative unit of ISRE reporter signal)” value in the data set with ISRE reporter signal came to 1.77. Further, in the data set on THP-1 cells, the Normalized cell viability is recorded as 1.34.
`CCN(CC)c1ccc(C(=O)c2cc(-c3ccc(OC)cc3)c3cc(C(C)=O)ccn23)cc1` [Compound 39]: the “Normalized RU (relative unit of ISRE reporter signal)” value with ISRE reporter signal was 1.47. In the data set with THP-1 cells, the Normalized cell viability turned out to be 1.18.
On to `CCN(CC)c1ccc(C(=O)c2cc(-c3ccc(N(C)C)cc3)c3cc(C(C)=O)ccn23)cc1` [Compound 40], for which the “Normalized RU (relative unit of ISRE reporter signal)” value in the data set on ISRE reporter signal is recorded as 1.09. For the same compound, the Normalized cell viability in the data set on THP-1 cells amounted to 1.17.
`O=C(c1ccc(C(F)(F)F)cc1)c1cc(-c2ccc(C(F)(F)F)cc2)c2ccccn12` [Compound 41]: the “Normalized RU (relative unit of ISRE reporter signal)” value in the data set with ISRE reporter signal came to 3.85. Moreover, the Normalized cell viability with THP-1 cells is 1.25.
The like results for `O=C(c1ccc(C(F)(F)F)cc1)c1cc(-c2ccccc2)c2ccccn12` [Compound 43] were, in that order, 1.08 and 1.13.
